Measured values from PubChem BioAssay AID256 (DTP/NCI, 2004).
“And” between values parts separate entries of the source, which are not always exact repeats. Identical values can stand only once. Inconclusive results and toxic doses are left out.

Tested on: CD2F1 mice, L1210 leukemia ip, survival T/C
Test: NCI In Vivo Anticancer Drug Screen. Data for tumor model L1210 Leukemia (intraperitoneal) in CD2F1 (CDF1) mice
Details: higher = longer survival
Summary of the method: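 Tumor-bearing mice (transplanted tumor) were split into treated and vehicle control groups, and the measured endpoint of each treated group was divided by that of its vehicle controls.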

[1] = endpoint: mean survival time, dose: 100.0 mg/kg/injection, schedule: Q01DX001 (ip), vehicle: saline with Tween-80
[2] = endpoint: mean survival time, dose: 200.0 mg/kg/injection, schedule: Q01DX001 (ip), vehicle: saline with Tween-80
[3] = endpoint: mean survival time, dose: 400.0 mg/kg/injection, schedule: Q01DX001 (ip), vehicle: saline with Tween-80
[4] = endpoint: mean survival time, dose: 100.0 mg/kg/injection, schedule: Q01DX009 (ip), vehicle: saline with Tween-80
[5] = endpoint: mean survival time, dose: 200.0 mg/kg/injection, schedule: Q01DX009 (ip), vehicle: saline with Tween-80
[6] = endpoint: mean survival time, dose: 400.0 mg/kg/injection, schedule: Q01DX009 (ip), vehicle: saline with Tween-80
[7] = endpoint: mean survival time, dose: 100.0 mg/kg/injection, schedule: Q01DX009 (ip), vehicle: Klucel (hydroxypropylcellulose) (HPC)
[8] = endpoint: mean survival time, dose: 200.0 mg/kg/injection, schedule: Q01DX009 (ip), vehicle: Klucel (hydroxypropylcellulose) (HPC)
[9] = endpoint: mean survival time, dose: 100.0 mg/kg/injection, schedule: Q04DX003 (ip), vehicle: saline with Tween-80
[10] = endpoint: mean survival time, dose: 200.0 mg/kg/injection, schedule: Q04DX003 (ip), vehicle: saline with Tween-80
[11] = endpoint: mean survival time, dose: 400.0 mg/kg/injection, schedule: Q04DX003 (ip), vehicle: saline with Tween-80
[12] = endpoint: mean survival time, dose: 100.0 mg/kg/injection, schedule: Q04DX002 (ip), vehicle: saline with Tween-80
[13] = endpoint: mean survival time, dose: 100.0 mg/kg/injection, schedule: Q01DX001 (ip), vehicle: saline
[14] = endpoint: mean survival time, dose: 200.0 mg/kg/injection, schedule: Q01DX001 (ip), vehicle: saline
[15] = endpoint: mean survival time, dose: 400.0 mg/kg/injection, schedule: Q01DX001 (ip), vehicle: saline

SMILES: Nc1ccccc1CCCC(N)C(=O)O (stereo not drawn)
- T/C [1]: 97 % of control
- T/C [2]: 100 % of control
- T/C [3]: 93 % of control

SMILES: NC(CS)=NC1CCCCC1
- T/C (endpoint: mean survival time, dose: 12.5 mg/kg/injection, schedule: Q04DX002 (ip), vehicle: saline with Tween-80): 104 % of control
- T/C (endpoint: mean survival time, dose: 25.0 mg/kg/injection, schedule: Q04DX002 (ip), vehicle: saline with Tween-80): 96 % of control

SMILES: CN(C)N=Nc1ccc(Cl)cc1C(=O)O
- T/C (endpoint: mean survival time, dose: 266.0 mg/kg/injection, schedule: Q04DX003 (ip), vehicle: other): 114 % of control
- T/C (endpoint: mean survival time, dose: 400.0 mg/kg/injection, schedule: Q04DX003 (ip), vehicle: other): 120 % of control

SMILES: CCOC(=O)CCC(NC(=O)c1ccc(NCc2cnc3nc(N)nc(N)c3c2)cc1)C(=O)OCC (stereo not drawn)
- T/C (endpoint: median survival time, dose: 1.0 mg/kg/injection, schedule: Q01DX005 (ip), vehicle: saline with Tween-80): 153 % of control
- T/C (endpoint: median survival time, dose: 2.0 mg/kg/injection, schedule: Q01DX005 (ip), vehicle: saline with Tween-80): 174 % of control

SMILES: CC(=O)N(O)c1ccc2c(c1)Cc1ccccc1-2
- T/C [4]: 98 % of control
- T/C [5]: 101 % of control
- T/C [6]: 101 % of control

SMILES: COc1ccc(C2C3CN(C4CCCCC4)C(=O)C3NN2C(C)=O)cc1 (stereo not drawn)
- T/C [4]: 91 % of control
- T/C [5]: 89 % of control
- T/C [6]: 89 % of control

SMILES: COc1c(C2OC(CO)C(O)C2O)nn(C)c1C(N)=O (stereo not drawn)
- T/C (endpoint: median survival time, dose: 48.5 mg/kg/injection, schedule: Q01DX005 (ip), vehicle: saline): 100 % of control
- T/C (endpoint: median survival time, dose: 97.0 mg/kg/injection, schedule: Q01DX005 (ip), vehicle: saline): 102 % of control
- T/C (endpoint: median survival time, dose: 193.9 mg/kg/injection, schedule: Q01DX005 (ip), vehicle: saline): 100 % of control

SMILES: [CH3][Sn]1([CH3])[O]C2C(CO)OC(n3cnc4c(=O)[nH]c(N)nc43)C2[O]1 (stereo not drawn)
- T/C (endpoint: mean survival time, dose: 12.5 mg/kg/injection, schedule: Q01DX005 (ip), vehicle: other): 98 % of control
- T/C (endpoint: mean survival time, dose: 25.0 mg/kg/injection, schedule: Q01DX005 (ip), vehicle: other): 101 % of control
- T/C (endpoint: mean survival time, dose: 50.0 mg/kg/injection, schedule: Q01DX005 (ip), vehicle: other): 102 % of control
- T/C (endpoint: mean survival time, dose: 100.0 mg/kg/injection, schedule: Q01DX005 (ip), vehicle: other): 93 % of control

SMILES: CCOC(=O)CCc1ccc2c(c1)OCO2
- T/C [4]: 103 % of control
- T/C [5]: 103 % of control
- T/C [6]: 113 % of control

SMILES: O=C(C[n+]1cccc(C(=O)Nc2ccc(Cl)cc2)c1)NCc1ccccc1
- T/C (endpoint: mean survival time, dose: 100.0 mg/kg/injection, schedule: Q04DX003 (ip), vehicle: saline): 97 % of control
- T/C (endpoint: mean survival time, dose: 200.0 mg/kg/injection, schedule: Q04DX003 (ip), vehicle: saline): 94 % of control
- T/C (endpoint: mean survival time, dose: 400.0 mg/kg/injection, schedule: Q04DX003 (ip), vehicle: saline): 102 % of control

SMILES: CS/C([S-])=N/[NH-].CS/C([S-])=N/[NH-].[Ni]
- T/C (endpoint: mean survival time, dose: 3.13 mg/kg/injection, schedule: Q01DX009 (ip), vehicle: saline with Tween-80): 97 % of control
- T/C (endpoint: mean survival time, dose: 12.5 mg/kg/injection, schedule: Q01DX001 (ip), vehicle: saline with Tween-80): 102 % of control

SMILES: CCCCCCCCCCCC[S+](C)C
- T/C (endpoint: mean survival time, dose: 10.0 mg/kg/injection, schedule: Q04DX003 (ip), vehicle: Klucel (hydroxypropylcellulose) (HPC)): 107 % of control
- T/C (endpoint: mean survival time, dose: 20.0 mg/kg/injection, schedule: Q04DX003 (ip), vehicle: Klucel (hydroxypropylcellulose) (HPC)): 103 % of control
- T/C (endpoint: mean survival time, dose: 40.0 mg/kg/injection, schedule: Q04DX003 (ip), vehicle: Klucel (hydroxypropylcellulose) (HPC)): 98 % of control

SMILES: COc1cc(/C=N/NC(=O)c2ccccc2)ccc1O
- T/C [7]: 97 % of control
- T/C [8]: 97 % of control
- T/C (endpoint: mean survival time, dose: 400.0 mg/kg/injection, schedule: Q01DX009 (ip), vehicle: Klucel (hydroxypropylcellulose) (HPC)): 97 % of control

SMILES: CC1(C)C(O)(C#N)C(C)(C)C1(O)C#N (stereo not drawn)
- T/C (endpoint: mean survival time, dose: 6.25 mg/kg/injection, schedule: Q04DX003 (ip), vehicle: saline): 102 % of control
- T/C (endpoint: mean survival time, dose: 12.5 mg/kg/injection, schedule: Q04DX003 (ip), vehicle: saline): 97 % of control

SMILES: C=C(Br)CSC#N
- T/C [9]: 96 % of control
- T/C [10]: 112 % of control
- T/C [11]: 96 % of control

SMILES: Cc1nc(N)c2ncn(C3OC(CO)C(O)C3O)c2n1 (stereo not drawn)
- T/C [12]: 115 % of control

SMILES: CCC1c2ccc3cc(O)ccc3c2CCC1(C)C(=O)OC (stereo not drawn)
- T/C (endpoint: mean survival time, dose: 50.0 mg/kg/injection, schedule: Q01DX001 (ip), vehicle: Klucel (hydroxypropylcellulose) (HPC)): 96 % of control
- T/C (endpoint: mean survival time, dose: 100.0 mg/kg/injection, schedule: Q01DX001 (ip), vehicle: Klucel (hydroxypropylcellulose) (HPC)): 96 % of control
- T/C (endpoint: mean survival time, dose: 200.0 mg/kg/injection, schedule: Q01DX001 (ip), vehicle: Klucel (hydroxypropylcellulose) (HPC)): 104 % of control

SMILES: C(=N\N=C\C1CCc2ccccc21)/c1ccco1 (stereo not drawn)
- T/C [4]: 88 % of control
- T/C [9]: 94 % of control
- T/C [10]: 93 % of control
- T/C [6]: 88 % of control
- T/C [11]: 87 % of control

SMILES: C[C@H]1CP(c2ccccc2)(c2ccccc2)(c2ccccc2)O[C@@]1(C(=O)c1ccccc1)c1ccccc1
- T/C [2]: 91 % of control

SMILES: OCC1OCOC2COCOC12 (stereo not drawn)
- T/C [9]: 95 % of control
- T/C [10]: 98 % of control
- T/C [11]: 101 % of control

SMILES: O=C(CBr)c1cc(-c2ccc(Cl)cc2)nc2c(Cl)cc(Cl)cc12
- T/C [13]: 91 % of control
- T/C [14]: 97 % of control
- T/C [15]: 103 % of control

SMILES: CC(C)CCCC(C)C1CCC2C3CCC4CC5OCC(O)CC5CC4(C)C3CCC12C (stereo not drawn)
- T/C [4]: 96 % of control
- T/C [5]: 100 % of control
- T/C [6]: 96 % of control

SMILES: CCOC(=O)c1c(C)c2c(n1C)CC/C(=C\O)C2=O
- T/C (endpoint: mean survival time, dose: 25.0 mg/kg/injection, schedule: Q04DX002 (ip), vehicle: other): 100 % of control
- T/C (endpoint: mean survival time, dose: 50.0 mg/kg/injection, schedule: Q04DX002 (ip), vehicle: other): 96 % of control
- T/C (endpoint: mean survival time, dose: 100.0 mg/kg/injection, schedule: Q04DX002 (ip), vehicle: other): 88 % of control and 96 % of control

SMILES: CCOC(=O)C1C=CCCC1 (stereo not drawn)
- T/C [4]: 97 % of control
- T/C [5]: 103 % of control
- T/C [6]: 95 % of control

SMILES: CCOC(=O)C(C(=O)OCC)C(C)C
- T/C [13]: 97 % of control
- T/C [14]: 97 % of control
- T/C [15]: 110 % of control

SMILES: C/C(=N\Nc1ccccc1)C1=C(O)C(Cc2ccccc2)NC1=O (stereo not drawn)
- T/C [12]: 100 % of control
- T/C (endpoint: mean survival time, dose: 200.0 mg/kg/injection, schedule: Q04DX002 (ip), vehicle: saline with Tween-80): 100 % of control
- T/C (endpoint: mean survival time, dose: 400.0 mg/kg/injection, schedule: Q04DX002 (ip), vehicle: saline with Tween-80): 103 % of control

SMILES: O=S(=O)(F)c1ccccc1
- T/C (endpoint: mean survival time, dose: 25.0 mg/kg/injection, schedule: Q04DX003 (ip), vehicle: saline with Tween-80): 95 % of control
- T/C (endpoint: mean survival time, dose: 50.0 mg/kg/injection, schedule: Q04DX003 (ip), vehicle: saline with Tween-80): 100 % of control
- T/C [9]: 95 % of control and 97 % of control

SMILES: CC(C)(C)OC(=O)NC(Cc1cn(Cc2ccccc2)cn1)C(=O)O (stereo not drawn)
- T/C [9]: 95 % of control
- T/C [10]: 101 % of control
- T/C [11]: 93 % of control

SMILES: CO[C@@]12[C@@H]3N[C@@H]3CN1C1=C(C(=O)C(Nc3ccc(S)cc3)=C(C)C1=O)[C@@H]2COC(N)=O
- T/C (endpoint: mean survival time, dose: 1.5 mg/kg/injection, schedule: Q01DX001 (ip), vehicle: water): 108 % of control
- T/C (endpoint: mean survival time, dose: 3.0 mg/kg/injection, schedule: Q01DX001 (ip), vehicle: water): 104 % of control
- T/C (endpoint: mean survival time, dose: 6.0 mg/kg/injection, schedule: Q01DX001 (ip), vehicle: water): 97 % of control
- T/C (endpoint: mean survival time, dose: 12.0 mg/kg/injection, schedule: Q01DX001 (ip), vehicle: water): 98 % of control
- T/C (endpoint: mean survival time, dose: 16.7 mg/kg/injection, schedule: Q01DX001 (ip), vehicle: distilled water + Tween-80): 92 % of control
- T/C (endpoint: mean survival time, dose: 24.0 mg/kg/injection, schedule: Q01DX001 (ip), vehicle: distilled water + Tween-80): 102 % of control
- T/C (endpoint: mean survival time, dose: 24.0 mg/kg/injection, schedule: Q01DX001 (ip), vehicle: water): 98 % of control
- T/C (endpoint: mean survival time, dose: 34.2 mg/kg/injection, schedule: Q01DX001 (ip), vehicle: distilled water + Tween-80): 104 % of control
- T/C (endpoint: mean survival time, dose: 48.9 mg/kg/injection, schedule: Q01DX001 (ip), vehicle: distilled water + Tween-80): 96 % of control

SMILES: O=C1C(c2ccccc2)=C(c2ccccc2)c2ccc(Cl)cc21
- T/C [1]: 106 % of control
- T/C [2]: 98 % of control
- T/C [3]: 97 % of control

SMILES: COc1ccc(C(=O)c2ccc(OC)cc2)cc1
- T/C (endpoint: mean survival time, dose: 50.0 mg/kg/injection, schedule: Q01DX009 (ip), vehicle: Klucel (hydroxypropylcellulose) (HPC)): 100 % of control
- T/C [7]: 93 % of control
- T/C [8]: 86 % of control
